Data reported in ChEMBL document CHEMBL4507273 (2021).
pKi: −log10 of the molar value.

Experiments:
[1] = target: 5-hydroxytryptamine receptor 5A (Homo sapiens, UniProt P47898); experiment: GPCRScan assay: inhibition of 5-HT5A; parameters: radioligand conc. used [nm] 2.0 - 3.3, parental cells Flp-In CHO; conditions: for pKi: read-out: Ki; for Ki: read-out: pKi (converted)
[2] = tested on: Tyrosine-protein kinase ABL1 (Homo sapiens), P00519 [H396P]; conditions: Compound concentration 1000.0 nM
[3] = tested on: Tyrosine-protein kinase ABL1 (Homo sapiens), P00519 [Q252H]; conditions: Compound concentration 1000.0 nM
[4] = target: Activin receptor type-1B (Homo sapiens) (UniProt P36896); conditions: Compound concentration 1000.0 nM
[5] = target: RAC-alpha serine/threonine-protein kinase (Homo sapiens) (UniProt P31749); conditions: Compound concentration 1000.0 nM
[6] = target: Ankyrin repeat and protein kinase domain-containing protein 1 (Homo sapiens) (UniProt Q8NFD2); conditions: Compound concentration 1000.0 nM
[7] = target: Tyrosine-protein kinase BTK (Homo sapiens) (UniProt Q06187); conditions: Compound concentration 1000.0 nM
[8] = target: Cyclin-dependent kinase 3 (Homo sapiens) (UniProt Q00526); conditions: Compound concentration 1000.0 nM
[9] = target: Cyclin-dependent kinase 5 (Homo sapiens) (UniProt Q00535); conditions: Compound concentration 1000.0 nM
[10] = target: Cyclin-dependent kinase 9 (Homo sapiens) (UniProt P50750); conditions: Compound concentration 1000.0 nM
[11] = target: Cyclin-dependent kinase-like 3 (Homo sapiens) (UniProt Q8IVW4); conditions: Compound concentration 1000.0 nM
[12] = target: Casein kinase II subunit alpha (Homo sapiens) (UniProt P68400); conditions: Compound concentration 1000.0 nM
[13] = target: Death-associated protein kinase 1 (Homo sapiens) (UniProt P53355); conditions: Compound concentration 1000.0 nM
[14] = target: Dual specificity tyrosine-phosphorylation-regulated kinase 2 (Homo sapiens) (UniProt Q92630); conditions: Compound concentration 1000.0 nM
[15] = target: Epidermal growth factor receptor (Homo sapiens, UniProt P00533); conditions: Compound concentration 1000.0 nM
[16] = tested on: Epidermal growth factor receptor (Homo sapiens), P00533 [UNDEFINED MUTATION]; conditions: Compound concentration 1000.0 nM
[17] = target: Ephrin type-A receptor 4 (Homo sapiens) (UniProt P54764); conditions: Compound concentration 1000.0 nM
[18] = target: Ephrin type-B receptor 2 (Homo sapiens) (UniProt P29323); conditions: Compound concentration 1000.0 nM
[19] = tested on: Receptor-type tyrosine-protein kinase FLT3 (Homo sapiens), P36888 [UNDEFINED MUTATION]; conditions: Compound concentration 1000.0 nM
[20] = target: Serine/threonine-protein kinase haspin (Homo sapiens) (UniProt Q8TF76); conditions: Compound concentration 1000.0 nM
[21] = tested on: Hepatocyte growth factor receptor (Homo sapiens), P08581 [Y1235D]; conditions: Compound concentration 1000.0 nM
[22] = target: Misshapen-like kinase 1 (Homo sapiens) (UniProt Q8N4C8); conditions: Compound concentration 1000.0 nM
[23] = target: MAP kinase-interacting serine/threonine-protein kinase 1 (Homo sapiens) (UniProt Q9BUB5); conditions: Compound concentration 1000.0 nM
[24] = target: Myosin light chain kinase (Homo sapiens) (UniProt Q32MK0); conditions: Compound concentration 1000.0 nM
[25] = target: Serine/threonine-protein kinase MRCK alpha (Homo sapiens) (UniProt Q5VT25); conditions: Compound concentration 1000.0 nM
[26] = target: Serine/threonine-protein kinase MRCK beta (Homo sapiens) (UniProt Q9Y5S2); conditions: Compound concentration 1000.0 nM
[27] = target: Macrophage-stimulating protein receptor (Homo sapiens) (UniProt Q04912); conditions: Compound concentration 1000.0 nM
[28] = target: Muscle, skeletal receptor tyrosine-protein kinase (Homo sapiens) (UniProt O15146); conditions: Compound concentration 1000.0 nM
[29] = target: Serine/threonine-protein kinase Nek2 (Homo sapiens) (UniProt P51955); conditions: Compound concentration 1000.0 nM
[30] = target: Mitogen-activated protein kinase kinase kinase 14 (Homo sapiens) (UniProt Q99558); conditions: Compound concentration 1000.0 nM
[31] = target: Mitogen-activated protein kinase 11 (Homo sapiens) (UniProt Q15759); conditions: Compound concentration 1000.0 nM
[32] = target: Cyclin-dependent kinase 17 (Homo sapiens) (UniProt Q00537); conditions: Compound concentration 1000.0 nM
[33] = target: Phosphatidylinositol 4-phosphate 3-kinase C2 domain-containing subunit beta (Homo sapiens) (UniProt O00750); conditions: Compound concentration 1000.0 nM
[34] = target: Phosphatidylinositol 4,5-bisphosphate 3-kinase catalytic subunit beta isoform (Homo sapiens) (UniProt P42338); conditions: Compound concentration 1000.0 nM
[35] = target: Protein kinase C theta type (Homo sapiens) (UniProt Q04759); conditions: Compound concentration 1000.0 nM
[36] = target: Uncharacterized serine/threonine-protein kinase SBK3 (Homo sapiens) (UniProt P0C264); conditions: Compound concentration 1000.0 nM
[37] = target: NUAK family SNF1-like kinase 2 (Homo sapiens) (UniProt Q9H093); conditions: Compound concentration 1000.0 nM
[38] = target: SRSF protein kinase 3 (Homo sapiens) (UniProt Q9UPE1); conditions: Compound concentration 1000.0 nM
[39] = target: Mitogen-activated protein kinase kinase kinase 7 (Homo sapiens) (UniProt O43318); conditions: Compound concentration 1000.0 nM
[40] = target: Testis-specific serine/threonine-protein kinase 3 (Homo sapiens) (UniProt Q96PN8); conditions: Compound concentration 1000.0 nM
[41] = target: Dual specificity protein kinase TTK (Homo sapiens) (UniProt P33981); conditions: Compound concentration 1000.0 nM
[42] = target: Serine/threonine-protein kinase ULK3 (Homo sapiens) (UniProt Q6PHR2); conditions: Compound concentration 1000.0 nM
[43] = target: Serine/threonine-protein kinase WNK2 (Homo sapiens) (UniProt Q9Y3S1); conditions: Compound concentration 1000.0 nM
[44] = target: 5-hydroxytryptamine receptor 6 (Homo sapiens) (UniProt P50406); conditions: Compound concentration 10.0 uM
[45] = target: Muscarinic acetylcholine receptor M2 (Homo sapiens) (UniProt P08172); conditions: Compound concentration 10.0 uM

Sequence of 5-hydroxytryptamine receptor 5A (P47898 whole entry): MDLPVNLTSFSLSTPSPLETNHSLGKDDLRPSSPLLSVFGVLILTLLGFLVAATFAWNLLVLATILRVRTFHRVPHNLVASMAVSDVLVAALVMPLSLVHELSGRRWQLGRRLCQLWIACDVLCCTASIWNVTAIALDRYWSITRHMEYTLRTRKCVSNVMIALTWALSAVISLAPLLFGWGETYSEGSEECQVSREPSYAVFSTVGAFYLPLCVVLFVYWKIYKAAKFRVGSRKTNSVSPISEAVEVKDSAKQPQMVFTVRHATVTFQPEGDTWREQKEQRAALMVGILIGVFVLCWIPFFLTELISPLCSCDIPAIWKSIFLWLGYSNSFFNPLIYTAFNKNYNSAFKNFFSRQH
Sequence of Tyrosine-protein kinase BTK (Homo sapiens) (Q06187 whole entry): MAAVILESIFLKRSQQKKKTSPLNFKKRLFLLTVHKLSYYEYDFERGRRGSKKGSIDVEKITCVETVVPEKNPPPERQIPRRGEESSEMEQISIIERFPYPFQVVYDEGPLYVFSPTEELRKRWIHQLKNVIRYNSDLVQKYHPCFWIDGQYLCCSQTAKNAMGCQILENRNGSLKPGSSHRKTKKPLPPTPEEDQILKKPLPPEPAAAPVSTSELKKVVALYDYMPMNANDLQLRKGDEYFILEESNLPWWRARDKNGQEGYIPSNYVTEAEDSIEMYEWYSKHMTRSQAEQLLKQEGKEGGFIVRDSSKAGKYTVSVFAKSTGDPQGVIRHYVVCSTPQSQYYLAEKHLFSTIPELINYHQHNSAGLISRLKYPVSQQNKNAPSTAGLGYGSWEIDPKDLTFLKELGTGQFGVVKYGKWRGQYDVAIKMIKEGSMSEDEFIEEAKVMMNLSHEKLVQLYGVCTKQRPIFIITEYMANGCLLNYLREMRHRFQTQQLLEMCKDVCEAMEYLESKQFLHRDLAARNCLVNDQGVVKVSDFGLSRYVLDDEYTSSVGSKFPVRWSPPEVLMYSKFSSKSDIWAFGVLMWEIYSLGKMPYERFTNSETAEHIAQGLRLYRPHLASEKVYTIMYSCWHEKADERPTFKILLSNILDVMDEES
Sequence of Mitogen-activated protein kinase 11 (Homo sapiens) (Q15759 whole entry): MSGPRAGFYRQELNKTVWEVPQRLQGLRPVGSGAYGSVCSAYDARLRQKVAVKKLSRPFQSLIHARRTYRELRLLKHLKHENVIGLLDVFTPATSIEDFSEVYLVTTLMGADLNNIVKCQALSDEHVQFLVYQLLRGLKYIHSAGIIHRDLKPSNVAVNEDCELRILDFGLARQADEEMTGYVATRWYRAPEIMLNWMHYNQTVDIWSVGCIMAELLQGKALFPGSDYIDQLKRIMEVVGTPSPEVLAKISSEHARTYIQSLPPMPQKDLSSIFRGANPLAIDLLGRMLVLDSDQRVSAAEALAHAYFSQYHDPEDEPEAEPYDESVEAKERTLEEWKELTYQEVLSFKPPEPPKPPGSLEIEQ
Sequence of Misshapen-like kinase 1 (Homo sapiens) (Q8N4C8 whole entry, looked up): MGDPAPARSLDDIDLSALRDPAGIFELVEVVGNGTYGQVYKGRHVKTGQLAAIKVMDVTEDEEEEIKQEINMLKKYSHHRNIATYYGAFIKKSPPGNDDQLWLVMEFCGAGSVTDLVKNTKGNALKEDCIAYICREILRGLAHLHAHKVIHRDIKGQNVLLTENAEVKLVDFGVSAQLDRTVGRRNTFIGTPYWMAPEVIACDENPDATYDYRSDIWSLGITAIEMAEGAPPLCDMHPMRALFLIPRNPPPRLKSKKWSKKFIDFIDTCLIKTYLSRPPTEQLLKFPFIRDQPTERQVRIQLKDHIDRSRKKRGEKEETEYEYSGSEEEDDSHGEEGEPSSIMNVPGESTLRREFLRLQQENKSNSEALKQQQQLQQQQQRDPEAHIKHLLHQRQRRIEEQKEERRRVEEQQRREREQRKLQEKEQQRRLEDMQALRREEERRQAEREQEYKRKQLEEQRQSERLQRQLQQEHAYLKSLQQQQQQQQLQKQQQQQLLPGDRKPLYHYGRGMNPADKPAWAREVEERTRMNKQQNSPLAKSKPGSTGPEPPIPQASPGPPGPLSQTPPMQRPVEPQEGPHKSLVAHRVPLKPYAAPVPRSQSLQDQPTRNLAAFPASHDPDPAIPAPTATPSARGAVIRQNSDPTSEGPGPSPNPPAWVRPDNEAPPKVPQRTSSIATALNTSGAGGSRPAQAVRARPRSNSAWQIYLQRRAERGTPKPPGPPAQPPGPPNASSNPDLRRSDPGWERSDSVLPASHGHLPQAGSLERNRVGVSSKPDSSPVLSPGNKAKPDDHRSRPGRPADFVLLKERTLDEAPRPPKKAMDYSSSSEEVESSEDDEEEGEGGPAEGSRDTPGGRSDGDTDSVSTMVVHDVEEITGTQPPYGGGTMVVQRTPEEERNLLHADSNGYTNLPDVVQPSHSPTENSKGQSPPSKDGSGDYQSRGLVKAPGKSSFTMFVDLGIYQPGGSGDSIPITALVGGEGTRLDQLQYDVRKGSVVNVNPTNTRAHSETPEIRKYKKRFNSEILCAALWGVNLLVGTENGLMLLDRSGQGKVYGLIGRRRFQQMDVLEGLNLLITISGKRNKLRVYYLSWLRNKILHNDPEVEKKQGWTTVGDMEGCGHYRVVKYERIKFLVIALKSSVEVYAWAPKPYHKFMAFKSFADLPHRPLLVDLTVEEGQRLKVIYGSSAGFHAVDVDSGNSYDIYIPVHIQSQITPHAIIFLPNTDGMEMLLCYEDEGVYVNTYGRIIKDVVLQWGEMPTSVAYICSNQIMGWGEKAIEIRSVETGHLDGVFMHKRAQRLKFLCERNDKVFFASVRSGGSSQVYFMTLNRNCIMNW
Sequence of Cyclin-dependent kinase-like 3 (Homo sapiens) (Q8IVW4 whole entry, looked up): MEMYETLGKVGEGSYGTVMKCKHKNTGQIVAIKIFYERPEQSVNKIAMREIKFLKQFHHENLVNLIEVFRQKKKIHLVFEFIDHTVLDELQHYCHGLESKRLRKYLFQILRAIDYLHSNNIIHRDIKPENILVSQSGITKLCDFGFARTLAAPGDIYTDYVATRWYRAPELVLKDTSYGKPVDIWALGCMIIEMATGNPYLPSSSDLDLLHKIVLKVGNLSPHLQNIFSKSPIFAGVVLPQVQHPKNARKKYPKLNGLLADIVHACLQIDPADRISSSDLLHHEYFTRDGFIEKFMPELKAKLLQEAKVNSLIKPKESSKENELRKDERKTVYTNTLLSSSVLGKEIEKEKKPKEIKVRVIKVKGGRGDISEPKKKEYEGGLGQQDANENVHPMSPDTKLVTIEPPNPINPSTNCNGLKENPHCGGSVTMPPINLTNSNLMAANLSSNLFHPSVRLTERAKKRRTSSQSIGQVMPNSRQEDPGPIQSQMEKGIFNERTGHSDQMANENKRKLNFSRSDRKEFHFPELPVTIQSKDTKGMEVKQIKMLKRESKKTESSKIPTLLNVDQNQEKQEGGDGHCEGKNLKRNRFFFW
Sequence of Activin receptor type-1B (Homo sapiens) (P36896 whole entry): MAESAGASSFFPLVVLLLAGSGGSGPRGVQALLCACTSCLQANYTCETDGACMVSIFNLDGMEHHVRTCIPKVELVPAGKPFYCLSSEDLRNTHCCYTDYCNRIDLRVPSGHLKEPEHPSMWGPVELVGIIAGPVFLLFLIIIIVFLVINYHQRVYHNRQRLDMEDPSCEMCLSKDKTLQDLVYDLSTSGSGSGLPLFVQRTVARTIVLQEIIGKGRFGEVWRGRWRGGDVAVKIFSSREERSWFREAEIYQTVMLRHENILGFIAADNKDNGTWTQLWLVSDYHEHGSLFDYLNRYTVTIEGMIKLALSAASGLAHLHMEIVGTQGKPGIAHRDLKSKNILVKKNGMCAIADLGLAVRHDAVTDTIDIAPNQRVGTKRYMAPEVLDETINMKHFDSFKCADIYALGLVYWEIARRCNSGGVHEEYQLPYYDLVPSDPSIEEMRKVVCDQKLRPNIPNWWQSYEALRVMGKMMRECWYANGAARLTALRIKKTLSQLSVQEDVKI
Sequence of Dual specificity tyrosine-phosphorylation-regulated kinase 2 (Homo sapiens) (Q92630 whole entry): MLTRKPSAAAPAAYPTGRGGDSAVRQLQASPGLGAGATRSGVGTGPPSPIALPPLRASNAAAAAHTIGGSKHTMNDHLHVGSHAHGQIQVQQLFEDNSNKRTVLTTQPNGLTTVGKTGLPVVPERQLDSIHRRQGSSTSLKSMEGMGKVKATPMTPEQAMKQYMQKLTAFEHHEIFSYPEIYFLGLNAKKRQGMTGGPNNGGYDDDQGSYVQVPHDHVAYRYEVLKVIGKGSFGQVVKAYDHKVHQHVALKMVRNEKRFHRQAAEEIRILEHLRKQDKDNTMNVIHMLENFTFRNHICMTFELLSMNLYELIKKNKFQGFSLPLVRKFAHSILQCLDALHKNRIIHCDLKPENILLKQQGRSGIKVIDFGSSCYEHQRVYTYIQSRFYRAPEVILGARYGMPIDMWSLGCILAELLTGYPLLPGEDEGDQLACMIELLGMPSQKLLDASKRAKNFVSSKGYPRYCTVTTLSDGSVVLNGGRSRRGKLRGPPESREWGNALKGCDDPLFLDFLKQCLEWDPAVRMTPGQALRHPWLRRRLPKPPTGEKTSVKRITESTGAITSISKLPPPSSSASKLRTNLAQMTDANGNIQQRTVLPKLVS
Sequence of Casein kinase II subunit alpha (Homo sapiens) (P68400 whole entry, looked up): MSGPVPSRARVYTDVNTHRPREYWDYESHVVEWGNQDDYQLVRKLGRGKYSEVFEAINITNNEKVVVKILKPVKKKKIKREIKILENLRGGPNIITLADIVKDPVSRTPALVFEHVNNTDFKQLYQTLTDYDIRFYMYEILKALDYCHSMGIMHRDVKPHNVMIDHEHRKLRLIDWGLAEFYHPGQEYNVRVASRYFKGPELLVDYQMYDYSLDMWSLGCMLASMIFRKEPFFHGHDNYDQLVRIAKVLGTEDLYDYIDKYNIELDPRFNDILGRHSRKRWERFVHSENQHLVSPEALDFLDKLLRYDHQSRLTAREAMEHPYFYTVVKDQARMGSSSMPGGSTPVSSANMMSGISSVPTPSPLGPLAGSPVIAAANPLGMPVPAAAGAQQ

CNCc1ccccc1-c1csc([C@@H](C)Nc2nc(C)nc3cc(OC)c(OC)cc23)c1 [BAY-293]
inactive: residual activity [2] 78% | residual activity [3] 69% | residual activity [4] 91% | residual activity [5] 100% | residual activity [6] 76% | residual activity [7] 90% | residual activity [8] 100% | residual activity [9] 78% | residual activity [10] 100% | residual activity [11] 99% | residual activity [12] 83% | residual activity [13] 99% | residual activity [14] 92% | residual activity [15] 90% | residual activity [16] 100% | residual activity [17] 79% | residual activity [18] 100% | residual activity [19] 57% | residual activity [20] 98% | residual activity [21] 100% | residual activity [22] 57% | residual activity [23] 83% | residual activity [24] 96% | residual activity [25] 67% | residual activity [26] 89% | residual activity [27] 100% | residual activity [28] 93% | residual activity [29] 92% | residual activity [30] 93% | residual activity [31] 86% | residual activity [32] 94% | residual activity [33] 86% | residual activity [34] 96% | residual activity [35] 100% | residual activity [36] 100% | residual activity [37] 97% | residual activity [38] 84% | residual activity [39] 70% | residual activity [40] 100% | residual activity [41] 97% | residual activity [42] 78% | residual activity [43] 72% | inhibition [44] -1.41%
2140 nM: Ki [1]
active: inhibition [45] 74.2%
5.59: pKi [1]

CNCc1ccccc1-c1csc([C@H](C)Nc2nc(C)nc3cc(OC)c(OC)cc23)c1 [BAY-294]
inactive: residual activity [2] 89% | residual activity [3] 76% | residual activity [4] 100% | residual activity [5] 100% | residual activity [6] 90% | residual activity [7] 89% | residual activity [8] 100% | residual activity [9] 98% | residual activity [10] 100% | residual activity [11] 97% | residual activity [12] 91% | residual activity [13] 100% | residual activity [14] 96% | residual activity [15] 100% | residual activity [16] 89% | residual activity [17] 100% | residual activity [18] 100% | residual activity [19] 79% | residual activity [20] 100% | residual activity [21] 98% | residual activity [22] 88% | residual activity [23] 91% | residual activity [24] 100% | residual activity [25] 92% | residual activity [26] 100% | residual activity [27] 100% | residual activity [28] 90% | residual activity [29] 92% | residual activity [30] 100% | residual activity [31] 100% | residual activity [32] 100% | residual activity [33] 100% | residual activity [34] 89% | residual activity [35] 100% | residual activity [36] 100% | residual activity [37] 100% | residual activity [38] 89% | residual activity [39] 75% | residual activity [40] 100% | residual activity [41] 100% | residual activity [42] 88% | residual activity [43] 99% | inhibition [44] 20.2%
977 nM: Ki [1]
active: inhibition [45] 65.4%
5.98: pKi [1]
